Measured values published in ChEMBL document CHEMBL3797190, “Development of 3,5-Dinitrobenzylsulfanyl-1,3,4-oxadiazoles and Thiadiazoles as Selective Antitubercular Agents Active Against Replicating and Nonreplicating Mycobacterium tuberculosis” (J Med Chem, 2016).
In brackets after ≈: the same amount, converted by molar mass.

Key:
[1] = test system: Mycobacterium tuberculosis; assay: Antimycobacterial activity against Mycobacterium tuberculosis CNCTC My 331/88 after 14 days by microdilution method; assay type: functional; conditions: CNCTC My 331/88, 336 h
Mycobacterium avium [2] = assay: Antimycobacterial activity against Mycobacterium avium CNCTC My 330/88 after 14 days by microdilution method; assay type: functional; conditions: CNCTC My 330/88, 336 h
Mycobacterium kansasii [3] = assay: Antimycobacterial activity against Mycobacterium kansasii CNCTC My 235/80 after 14 days by microdilution method; assay type: functional; conditions: CNCTC My 235/80, 336 h
Mycobacterium kansasii [4] = assay: Antimycobacterial activity against Mycobacterium kansasii CNCTC My 6509/96 after 14 days by microdilution method; assay type: functional; conditions: CNCTC My 6509/96, 336 h
[5] = test system: Mycobacterium tuberculosis; assay: Antimycobacterial activity against Mycobacterium tuberculosis CNCTC My 331/88 after 21 days by microdilution method; assay type: functional; conditions: CNCTC My 331/88, 504 h
Mycobacterium avium [6] = assay: Antimycobacterial activity against Mycobacterium avium CNCTC My 330/88 after 21 days by microdilution method; assay type: functional; conditions: CNCTC My 330/88, 504 h
Mycobacterium kansasii [7] = assay: Antimycobacterial activity against Mycobacterium kansasii CNCTC My 235/80 after 21 days by microdilution method; assay type: functional; conditions: CNCTC My 235/80, 504 h
Mycobacterium kansasii [8] = assay: Antimycobacterial activity against Mycobacterium kansasii CNCTC My 6509/96 after 21 days by microdilution method; assay type: functional; conditions: CNCTC My 6509/96, 504 h
Mycobacterium kansasii [9] = assay: Antimycobacterial activity against Mycobacterium kansasii CNCTC My 235/80 after 7 days by microdilution method; assay type: functional; conditions: CNCTC My 235/80, 168 h
Mycobacterium kansasii [10] = assay: Antimycobacterial activity against Mycobacterium kansasii CNCTC My 6509/96 after 7 days by microdilution method; assay type: functional; conditions: CNCTC My 6509/96, 168 h
[11] = Cytotoxicity against human HuH7 cells assessed as cell viability after 24 hrs by MTS assay; assay type: cell-based; conditions: Huh-7, 24 h
[12] = Cytotoxicity against human HuH7 cells assessed as cell viability after 48 hrs by MTS assay; assay type: cell-based; conditions: Huh-7, 48 h
HeLa [13] = assay: Cytotoxicity against human HeLa cells assessed as cell viability after 24 hrs by MTS assay; assay type: cell-based
HeLa [14] = assay: Cytotoxicity against human HeLa cells assessed as cell viability after 48 hrs by MTS assay; assay type: cell-based
[15] = Cytotoxicity against MDCK2-MDR1 cells assessed as cell viability after 24 hrs by MTS assay; assay type: ADME, cell-based; conditions: Canis lupus familiaris, MDCK-II
[16] = Cytotoxicity against MDCK2-MDR1 cells assessed as cell viability after 48 hrs by MTS assay; assay type: ADME, cell-based; conditions: Canis lupus familiaris, MDCK-II
[17] = Cytotoxicity against human HuH7 cells assessed as cell viability at 20 uM after 24 hrs by MTS assay; assay type: cell-based, Huh-7; conditions: read-out: Activity
[18] = Cytotoxicity against human HuH7 cells assessed as cell viability at 20 uM after 48 hrs by MTS assay; assay type: cell-based, Huh-7; conditions: read-out: Activity
[19] = Cytotoxicity against human HeLa cells assessed as cell viability at 20 uM after 24 hrs by MTS assay; assay type: cell-based; conditions: read-out: Activity
[20] = Cytotoxicity against human HeLa cells assessed as cell viability at 20 uM after 48 hrs by MTS assay; assay type: cell-based; conditions: read-out: Activity
[21] = Cytotoxicity against MDCK2-MDR1 cells assessed as cell viability at 20 uM after 24 hrs by MTS assay; assay type: ADME, cell-based, Canis lupus familiaris, MDCK-II; conditions: dog, read-out: Activity
[22] = Cytotoxicity against MDCK2-MDR1 cells assessed as cell viability at 20 uM after 48 hrs by MTS assay; assay type: ADME, cell-based, Canis lupus familiaris, MDCK-II; conditions: dog, read-out: Activity
Candida albicans = assay: Antifungal activity against Candida albicans ATCC 44859 after 24 to 48 hrs by broth microdilution method; assay type: functional
Candida tropicalis = assay: Antifungal activity against Candida tropicalis 156 after 24 to 48 hrs by broth microdilution method; assay type: functional
Pichia kudriavzevii = assay: Antifungal activity against Candida krusei E28 after 24 to 48 hrs by broth microdilution method; assay type: functional
Nakaseomyces glabratus = assay: Antifungal activity against Candida glabrata 20/I after 24 to 48 hrs by broth microdilution method; assay type: functional
Trichosporon asahii = assay: Antifungal activity against Trichosporon asahii 1188 after 24 to 48 hrs by broth microdilution method; assay type: functional
Aspergillus fumigatus = assay: Antifungal activity against Aspergillus fumigatus 231 after 24 to 48 hrs by broth microdilution method; assay type: functional
Lichtheimia corymbifera = assay: Antifungal activity against Absidia corymbifera 272 after 24 to 48 hrs by broth microdilution method; assay type: functional
[23] = test system: Trichophyton mentagrophytes; assay: Antifungal activity against Trichophyton mentagrophytes 445 after 72 to 120 hrs by broth microdilution method; assay type: functional
Staphylococcus aureus [24] = assay: Antibacterial activity against Staphylococcus aureus ATCC 6538 after 24 to 48 hrs by broth microdilution method; assay type: functional
Staphylococcus aureus [25] = assay: Antibacterial activity against methicillin-resistant Staphylococcus aureus H 5996/08 after 24 to 48 hrs by broth microdilution method; assay type: functional
[26] = test system: Staphylococcus epidermidis; assay: Antibacterial activity against Staphylococcus epidermidis H 6966/08 after 24 to 48 hrs by broth microdilution method; assay type: functional
Enterococcus faecalis = assay: Antibacterial activity against Enterococcus faecalis J 14365/08 after 24 to 48 hrs by broth microdilution method; assay type: functional
Escherichia coli = assay: Antibacterial activity against Escherichia coli ATCC 8739 after 24 to 48 hrs by broth microdilution method; assay type: functional
Klebsiella pneumoniae [27] = assay: Antibacterial activity against Klebsiella pneumoniae D 11750/08 after 24 to 48 hrs by broth microdilution method; assay type: functional
Klebsiella pneumoniae [28] = assay: Antibacterial activity against ESBL producing Klebsiella pneumoniae J 14368/08 after 24 to 48 hrs by broth microdilution method; assay type: functional
Pseudomonas aeruginosa = assay: Antibacterial activity against Pseudomonas aeruginosa ATCC 9027 after 24 to 48 hrs by broth microdilution method; assay type: functional
Hepatocyte = assay: Cytotoxicity against primary human hepatocytes assessed as cell viability after 48 hrs by MTS assay; assay type: cell-based
[29] = Cytotoxicity against primary human hepatocytes assessed as cell viability at 20 uM after 48 hrs by MTS assay; assay type: cell-based, Hepatocyte; conditions: read-out: Activity
Salmonella typhimurium [30] = assay: Mutagenic activity in Salmonella typhimurium TA100 assessed as reverse mutation at 30 uM by Ames test; assay type: toxicity, organism-based; conditions: salmonella enterica subsp. enterica serovar typhimurium
Salmonella typhimurium [31] = assay: Mutagenic activity in Salmonella typhimurium TA98 assessed as reverse mutation at 30 uM by Ames test; assay type: toxicity, organism-based; conditions: salmonella enterica subsp. enterica serovar typhimurium

Row | Compound | MIC99 [1] [µM] | MIC99 (Mycobacterium avium [2]) [µM] | MIC99 (Mycobacterium kansasii [3]) [µM] | MIC99 (Mycobacterium kansasii [4]) [µM] | MIC99 [5] [µM] | MIC99 (Mycobacterium avium [6]) [µM] | MIC99 (Mycobacterium kansasii [7]) [µM] | MIC99 (Mycobacterium kansasii [8]) [µM] | MIC99 (Mycobacterium kansasii [9]) [µM] | MIC99 (Mycobacterium kansasii [10]) [µM] | IC50 [11] [µM] | IC50 (HeLa [13]) [µM] | IC50 (HeLa [14]) [µM] | IC50 [15] [µM] | IC50 [16] [µM] | viability at 24 h, 20 µM [17] [%] | viability at 48 h, 20 µM [18] [%] | viability at 24 h, 20 µM [19] [%] | viability at 48 h, 20 µM [20] [%] | viability at 24 h, 20 µM [21] [%] | other results
1 | COc1ccc(-c2nnc(SCc3cc([N+](=O)[O-])cc([N+](=O)[O-])c3)s2)cc1 | 0.125 (≈ 0.0506 µg/mL) | 8 (≈ 3.24 µg/mL) | 1 (≈ 0.404 µg/mL) | 1 (≈ 0.404 µg/mL) | 0.125 (≈ 0.0506 µg/mL) | 16 (≈ 6.47 µg/mL) | 1 (≈ 0.404 µg/mL) | 1 (≈ 0.404 µg/mL) | 0.25 (≈ 0.101 µg/mL) | 0.25 (≈ 0.101 µg/mL) | > 20 | > 20 | 4.4 | > 20 | > 20 | 95.4 | 84.2 | 88 | 27.1 | 101 | IC50 [12]: > 20 µM; viability at 48 h, 20 µM [22]: 60%; MIC80 (Candida albicans): > 125 µM; MIC80 (Candida tropicalis): > 125 µM; MIC80 (Pichia kudriavzevii): > 125 µM; MIC80 (Nakaseomyces glabratus): > 125 µM; MIC80 (Trichosporon asahii): > 125 µM; MIC50 (Aspergillus fumigatus): > 125 µM; MIC50 (Lichtheimia corymbifera): > 125 µM; MIC50 [23]: > 125 µM; MIC95 (Staphylococcus aureus [24]): > 125 µM; MIC95 (Staphylococcus aureus [25]): > 125 µM; MIC95 [26]: > 125 µM; MIC95 (Enterococcus faecalis): > 125 µM; MIC95 (Escherichia coli): > 125 µM; MIC95 (Klebsiella pneumoniae [27]): > 125 µM; MIC95 (Klebsiella pneumoniae [28]): > 125 µM; MIC95 (Pseudomonas aeruginosa): > 125 µM
2 | COc1cccc(-c2nnc(SCc3cc([N+](=O)[O-])cc([N+](=O)[O-])c3)s2)c1 | ≤ 0.03 | 8 (≈ 3.24 µg/mL) | 0.5 (≈ 0.202 µg/mL) | 0.5 (≈ 0.202 µg/mL) | 0.06 (≈ 0.0243 µg/mL) | 16 (≈ 6.47 µg/mL) | 0.5 (≈ 0.202 µg/mL) | 0.5 (≈ 0.202 µg/mL) | 0.25 (≈ 0.101 µg/mL) | 0.25 (≈ 0.101 µg/mL) | > 20 | > 20 | 4 | > 20 | 6.4 | 86.3 | 33 | 71.2 | 17.5 | 100 | viability at 48 h, 20 µM [22]: 18.5%; IC50 (Hepatocyte): > 20 µM; viability at 48 h, 20 µM [29]: 121%; Activity (Salmonella typhimurium [30]): Non-toxic; Activity (Salmonella typhimurium [31]): Non-toxic
3 | O=[N+]([O-])c1ccc(CSc2nnc(-c3ccccc3)o2)c([N+](=O)[O-])c1 | 2 (≈ 0.717 µg/mL) | > 16 | 8 (≈ 2.87 µg/mL) | 8 (≈ 2.87 µg/mL) | 4 (≈ 1.43 µg/mL) | > 16 | 16 (≈ 5.73 µg/mL) | 8 (≈ 2.87 µg/mL) | 4 (≈ 1.43 µg/mL) | 2 (≈ 0.717 µg/mL) | > 20 | > 20 | > 20 | > 20 | > 20 | 99.5 | 92.8 | 97.7 | 113 | 69.6 | IC50 [12]: > 20 µM; viability at 48 h, 20 µM [22]: 73.3%; Activity (Salmonella typhimurium [31]): Toxic; MIC80 (Candida albicans): > 125 µM; MIC80 (Candida tropicalis): > 125 µM; MIC80 (Pichia kudriavzevii): > 125 µM; MIC80 (Nakaseomyces glabratus): > 125 µM; MIC80 (Trichosporon asahii): > 125 µM; MIC50 (Aspergillus fumigatus): > 125 µM; MIC50 (Lichtheimia corymbifera): > 125 µM; MIC50 [23]: > 125 µM; MIC95 (Staphylococcus aureus [24]): > 125 µM; MIC95 (Staphylococcus aureus [25]): > 125 µM; MIC95 [26]: > 125 µM; MIC95 (Enterococcus faecalis): > 125 µM; MIC95 (Escherichia coli): > 125 µM; MIC95 (Klebsiella pneumoniae [27]): > 125 µM; MIC95 (Klebsiella pneumoniae [28]): > 125 µM; MIC95 (Pseudomonas aeruginosa): > 125 µM
